Test results published in patent US8952181B2, “Organic semiconductive material precursor containing dithienobenzodithiophene derivative, ink, insulating member, charge-transporting member, and organic electronic device” (Ricoh Company, Ltd., priority 2010, dated 2015).

Assays:
[1] = Solubility in organic solvents; format: physicochemical
Description: The solubility test of Example Compound 1-2 of Example 1 was performed by dissolving Example Compound 1-2 respectively in THF, chloroform, toluene, xylene, mesitylene, diethyl ether, dichloromethane, and ethanol. Example Compound 1-2 was not dissolved in any of the above-described solvents, and cannot form a film by various printing methods.

[2] = TG-DTA thermal analysis (elimination of X-Y on heating); format: physicochemical; conditions: temperature increase rate 5° C./min
Description: A TG-DTA measurement with respect to Example Compound 1 was performed using TG/DTA200 (manufactured by Seiko Instruments is Inc.). […] This was identical with the melting point of the following Example Compound 1-2 described in Japanese Patent Application Laid-Open (JP-A) No. 2011-44686.

[3] = solvent such as THF, toluene, chloroform, xylene, diethyl ether, or dichloromethane

Row | SMILES | solubility in solvent [1, 3] | mass reduction, found value [2] [%] | also measured
1 | C(=C\c1cc2sc3cc4c(cc3c2s1)sc1cc(/C=C/c2ccccc2)sc14)/c1ccccc1 [Example Compound 1-2] |  |  | solubility test ([1]; THF, chloroform, toluene, xylene, mesitylene, diethyl ether, dichloromethane, and ethanol): not dissolved
2 | CCOC(=O)CC(=O)OC(Cc1ccccc1)c1cc2sc3cc4c(cc3c2s1)sc1cc(C(Cc2ccccc2)OC(=O)CC(=O)OCC)sc14 (centres unmarked) [Example Compound 13] | easily dissolved | 35.5 | 
3 | Cc1ccc(-c2ccc(CC(O)c3cc4sc5cc6c(cc5c4s3)sc3cc(C(O)Cc4ccc(-c5ccc(C)cc5)cc4)sc36)cc2)cc1 (centres unmarked) [Example Compound 17] |  | 4.0 | solubility in solvent ([1]; solvent such as THF or toluene): easily dissolved
4 | CCCCCC(=O)OC(Cc1ccccc1)c1cc2sc3cc4c(cc3c2s1)sc1cc(C(Cc2ccccc2)OC(=O)CCCCC)sc14 (centres unmarked) [Example Compound 2] | easily dissolved | 31.4 | 
5 | O=C(CCl)OC(Cc1ccccc1)c1cc2sc3cc4c(cc3c2s1)sc1cc(C(Cc2ccccc2)OC(=O)CCl)sc14 (centres unmarked) [Example Compound 14] | easily dissolved | 26.6 | 
6 | CCCCCCc1ccc(CC(OC(=O)C(C)=O)c2cc3sc4cc5c(cc4c3s2)sc2cc(C(Cc3ccc(CCCCCC)cc3)OC(=O)C(C)=O)sc25)cc1 (centres unmarked) [Example Compound 16] | easily dissolved | 21.1 | 
7 | O=C(CCC(F)(F)F)OC(Cc1ccccc1)c1cc2sc3cc4c(cc3c2s1)sc1cc(C(Cc2ccccc2)OC(=O)CCC(F)(F)F)sc14 (centres unmarked) [Example Compound 15] | easily dissolved | 34.3 | 
8 | CC(=O)CC(=O)OC(Cc1ccccc1)c1cc2sc3cc4c(cc3c2s1)sc1cc(C(Cc2ccccc2)OC(=O)CC(C)=O)sc14 (centres unmarked) [Example Compound 24] | easily dissolved | 25.7 | 
9 | O=C(CC(F)(F)F)OC(Cc1ccccc1)c1cc2sc3cc4c(cc3c2s1)sc1cc(C(Cc2ccccc2)OC(=O)CC(F)(F)F)sc14 (centres unmarked) [Example Compound 3] |  | 32.6 | 
10 | CCCCCOC(=O)OC(Cc1ccccc1)c1cc2sc3cc4c(cc3c2s1)sc1cc(C(Cc2ccccc2)OC(=O)OCCCCC)sc14 (centres unmarked) [Example Compound 11] | easily dissolved | 33.3 | 
11 | CCCCCC(=O)OC(Cc1ccc(C)cc1)c1cc2sc3cc4c(cc3c2s1)sc1cc(C(Cc2ccc(C)cc2)OC(=O)CCCCC)sc14 (centres unmarked) [Example Compound 4] |  | 30.0 | 
12 | CCCCCCc1ccc(CC(OC(C)=O)c2cc3sc4cc5c(cc4c3s2)sc2cc(C(Cc3ccc(CCCCCC)cc3)OC(C)=O)sc25)cc1 (centres unmarked) [Example Compound 6] |  | 15.1 | 
13 | CC(C)(C)C(=O)OC(Cc1ccccc1)c1cc2sc3cc4c(cc3c2s1)sc1cc(C(Cc2ccccc2)OC(=O)C(C)(C)C)sc14 (centres unmarked) [Example Compound 1] | easily dissolved | 29.7 | 
14 | COC(Cc1ccccc1)c1cc2sc3cc4c(cc3c2s1)sc1cc(C(Cc2ccccc2)OC)sc14 (centres unmarked) [Example Compound 12] | easily dissolved | 13.9 | 
15 | CCCCCCc1ccc(CC(O)c2cc3sc4cc5c(cc4c3s2)sc2cc(C(O)Cc3ccc(CCCCCC)cc3)sc25)cc1 (centres unmarked) [Example Compound 7] |  | 4.0 | 
16 | CSC(=S)OC(Cc1ccc(C)cc1)c1cc2sc3cc4c(cc3c2s1)sc1cc(C(Cc2ccc(C)cc2)OC(=S)SC)sc14 (centres unmarked) [Example Compound 23] |  |  | solubility in solvent ([1]; solvent such as THF, toluene, chloroform, xylene, or dichloromethane): easily dissolved
17 | CCCCCC(=O)OC(Cc1ccc(-c2ccc(C)cc2)cc1)c1cc2sc3cc4c(cc3c2s1)sc1cc(C(Cc2ccc(-c3ccc(C)cc3)cc2)OC(=O)CCCCC)sc14 (centres unmarked) [Example Compound 18] | easily dissolved | 24.2 | 
18 | CC(=O)OC(Cc1ccc(C)cc1)c1cc2sc3cc4c(cc3c2s1)sc1cc(C(Cc2ccc(C)cc2)OC(C)=O)sc14 (centres unmarked) [Example Compound 5] |  | 17.9 | 
